According to ChEMBL document CHEMBL1909046, “DrugMatrix in vitro pharmacology data”:
pIC50, pKi: −log10 of the molar value.

Experiments:
[1] = molecular target: Beta-3 adrenergic receptor (Homo sapiens, UniProt P13945); experiment: DRUGMATRIX: Adrenergic beta3 radioligand binding (ligand: [125I] Cyanopindolol); assay type: cell membranes, HEK293, Membrane; settings: hek293; Not Active = under 50% inhibition at 10 µM
[2] = molecular target: 5-hydroxytryptamine receptor 6 (Homo sapiens, UniProt P50406); assay type: cell membranes, HeLa, Membrane; settings: for IC50: hela; on all read-outs here: in other assays of this panel Not Active means under 50% inhibition at 10 µM
Substance-K receptor = molecular target: T1, Substance-K receptor (Homo sapiens, UniProt P21452); assay type: cell membranes, CHO, Membrane; settings: cho; further: in other assays of this panel Not Active means under 50% inhibition at 10 µM
T1 sequence (P21452 whole entry): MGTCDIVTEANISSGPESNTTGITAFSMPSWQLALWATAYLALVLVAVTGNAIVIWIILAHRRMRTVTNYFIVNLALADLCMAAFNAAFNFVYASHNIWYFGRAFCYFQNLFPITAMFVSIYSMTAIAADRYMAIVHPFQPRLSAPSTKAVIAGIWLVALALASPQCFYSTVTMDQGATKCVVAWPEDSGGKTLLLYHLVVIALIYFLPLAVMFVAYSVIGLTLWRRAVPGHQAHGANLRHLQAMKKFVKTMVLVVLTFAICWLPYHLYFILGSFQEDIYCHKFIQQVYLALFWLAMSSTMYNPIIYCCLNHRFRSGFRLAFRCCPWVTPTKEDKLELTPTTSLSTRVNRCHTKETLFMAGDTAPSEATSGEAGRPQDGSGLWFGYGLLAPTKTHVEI

D(4) dopamine receptor = molecular target: T2, D(4) dopamine receptor (Homo sapiens, UniProt P21917); experiment: DRUGMATRIX: Dopamine D4.2 radioligand binding (ligand: [3H] Spiperone); assay type: cell membranes, CHO-K1, Membrane; settings: cho-k1; Not Active = under 50% inhibition at 10 µM
T2 sequence (P21917 whole entry): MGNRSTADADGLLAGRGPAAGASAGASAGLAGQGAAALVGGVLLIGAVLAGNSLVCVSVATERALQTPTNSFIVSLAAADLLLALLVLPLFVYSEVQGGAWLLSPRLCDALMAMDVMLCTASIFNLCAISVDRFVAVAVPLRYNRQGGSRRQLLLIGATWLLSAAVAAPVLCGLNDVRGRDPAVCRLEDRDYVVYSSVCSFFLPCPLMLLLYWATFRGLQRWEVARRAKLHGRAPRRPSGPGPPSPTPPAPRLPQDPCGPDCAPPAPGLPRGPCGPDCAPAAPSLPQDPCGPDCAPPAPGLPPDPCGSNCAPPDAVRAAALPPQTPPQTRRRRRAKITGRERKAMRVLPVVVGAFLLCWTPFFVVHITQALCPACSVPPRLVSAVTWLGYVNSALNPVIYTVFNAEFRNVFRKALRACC

[3] = DRUGMATRIX: Interleukin IL-1 radioligand binding (ligand: [125I] interleukin 1beta); assay type: cell membranes, Membrane; settings: nih3t3; Not Active = under 50% inhibition at 10 µM
[4] = DRUGMATRIX: Purinergic P2X radioligand binding (ligand: [3H] alpha, beta-Methylene-ATP); assay type: cell membranes, Oryctolagus cuniculus, New Zealand albino, Urinary bladder, Membrane; settings: Not Active = under 50% inhibition at 10 µM

5-hydroxytryptamine receptor 6, sequence (P50406 whole entry): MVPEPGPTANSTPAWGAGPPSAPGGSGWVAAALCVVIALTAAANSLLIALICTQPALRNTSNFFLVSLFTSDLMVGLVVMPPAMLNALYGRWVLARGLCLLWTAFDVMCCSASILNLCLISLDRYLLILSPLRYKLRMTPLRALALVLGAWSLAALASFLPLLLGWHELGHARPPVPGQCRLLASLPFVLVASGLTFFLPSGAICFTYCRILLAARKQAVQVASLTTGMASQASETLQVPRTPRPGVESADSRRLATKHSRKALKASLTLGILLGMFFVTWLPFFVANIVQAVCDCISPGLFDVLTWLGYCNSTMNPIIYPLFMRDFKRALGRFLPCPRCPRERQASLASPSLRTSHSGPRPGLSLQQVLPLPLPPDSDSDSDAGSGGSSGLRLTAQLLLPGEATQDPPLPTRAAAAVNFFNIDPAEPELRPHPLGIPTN
Beta-3 adrenergic receptor, sequence (P13945 whole entry): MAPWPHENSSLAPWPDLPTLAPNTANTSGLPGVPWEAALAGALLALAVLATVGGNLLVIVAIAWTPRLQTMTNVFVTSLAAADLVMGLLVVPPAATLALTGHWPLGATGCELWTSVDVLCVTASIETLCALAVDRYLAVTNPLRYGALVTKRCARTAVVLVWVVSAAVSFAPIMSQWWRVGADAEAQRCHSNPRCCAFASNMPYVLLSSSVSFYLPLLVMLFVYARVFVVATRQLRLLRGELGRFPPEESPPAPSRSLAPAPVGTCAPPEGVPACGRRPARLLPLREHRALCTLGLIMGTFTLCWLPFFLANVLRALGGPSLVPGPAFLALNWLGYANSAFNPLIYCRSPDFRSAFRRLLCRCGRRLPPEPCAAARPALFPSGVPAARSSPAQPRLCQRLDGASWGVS

| Compound | IC50 [1] | pIC50 ([2]; read-out: IC50) | pKi ([2]; read-out: Ki) | IC50 (Substance-K receptor) | IC50 (D(4) dopamine receptor) | IC50 [3] | Ki [3] | IC50 [4] | Ki [4] | IC50 [2] |
| --- | --- | --- | --- | --- | --- | --- | --- | --- | --- | --- |
| CN1CCCC(CN2c3ccccc3Sc3ccccc32)C1 (configuration not stated) [MEPAZINE] | Not Active | 5.74 | 6.07 | Not Active | Not Active | Not Active | Not Active | Not Active | Not Active |  |
| Cc1cccc(C)c1NC(=O)C1CCCCN1C (configuration not stated) [MEPIVACAINE] | Not Active |  |  | Not Active | Not Active | Not Active | Not Active | Not Active | Not Active | Not Active |
| CN(C)C(=N)NC(=N)N [METFORMIN] | Not Active |  |  | Not Active | Not Active | Not Active | Not Active | Not Active | Not Active | Not Active |
| CC(C)(C)NCC(O)COc1cccc2c1CC(O)C(O)C2 (configuration not stated) [NADOLOL] | Not Active |  |  | Not Active | Not Active | Not Active | Not Active | Not Active | Not Active | Not Active |
| C[C@]12CC[C@H]3[C@@H](CCC4=CC(=O)CC[C@@H]43)[C@@H]1CC[C@@H]2O [NANDROLONE] | Not Active |  |  | Not Active | Not Active | Not Active | Not Active | Not Active | Not Active | Not Active |
| C[C@@H]1C/C=C/C=C/C=C/C=C/[C@H](O[C@@H]2O[C@H](C)[C@@H](O)[C@H](N)[C@@H]2O)C[C@@H]2O[C@](O)(C[C@@H](O)C[C@H]3O[C@@H]3/C=C/C(=O)O1)C[C@H](O)[C@H]2C(=O)O [NATAMYCIN] | Not Active |  |  | Not Active | Not Active | Not Active | Not Active | Not Active | Not Active | Not Active |
| CN(C)C(=O)Oc1cccc([N+](C)(C)C)c1.[Br-] [NEOSTIGMINE BROMIDE] | Not Active |  |  | Not Active | Not Active | Not Active | Not Active | Not Active | Not Active | Not Active |
| NC(=O)c1cccnc1 [NIACINAMIDE] | Not Active |  |  | Not Active | Not Active | Not Active | Not Active | Not Active | Not Active | Not Active |
| CS(=O)(=O)Nc1ccc([N+](=O)[O-])cc1Oc1ccccc1 [NIMESULIDE] | Not Active |  |  | Not Active | Not Active | Not Active | Not Active | Not Active | Not Active | Not Active |
| CN1C(=O)CN=C(c2ccccc2)c2cc([N+](=O)[O-])ccc21 [NIMETAZEPAM] | Not Active |  |  | Not Active | Not Active | Not Active | Not Active | Not Active | Not Active | Not Active |
| COc1ccc2c(c1OC)C(=O)O[C@@H]2[C@H]1c2c(cc3c(c2OC)OCO3)CCN1C [NOSCAPINE] | Not Active |  |  | Not Active | Not Active | Not Active | Not Active | Not Active | Not Active | Not Active |
| C[C@@H]1O[C@@H](O[C@H]2C[C@@H](O)[C@]3(CO)[C@H]4[C@H](O)C[C@]5(C)[C@@H](C6=CC(=O)OC6)CC[C@]5(O)[C@@H]4CC[C@]3(O)C2)[C@H](O)[C@H](O)[C@H]1O [OUABAIN] | Not Active |  |  | Not Active | Not Active | Not Active | Not Active | Not Active | Not Active | Not Active |
